From publication PMC7998250, “Temperate Zone Plant Natural Products—A Novel Resource for Activity against Tropical Parasitic Diseases” (Pharmaceuticals, 2021)
Where two headings read alike, the source gives them in different places.

Legend:
[1] = system: T. brucei bloodstream form; assay: Initial screen, T. brucei bloodstream form, Alamar Blue; assay type: cell-based, Trypanosoma brucei brucei; details: for initial hit against T. brucei: growth reduced by ≥50%; for inhibition of growth at 2 µM / activity at 2 µM: Trypanosoma brucei; for inhibition of growth at 2 µM: read-out: initial hit T.b
How it was run: (§1)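 Bloodstream-form T. evansi Antat 3/3 and T. brucei Lister 427 were grown in HMI-11 with 10% FBS at 37 °C. Parasites were plated at 1×10^5 cells/mL with compound at 1 μM (T. evansi) or 2 μM (T. brucei) for 48 h, and growth was read by Alamar Blue relative to 1% DMSO controls (n = 6).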

[2] = system: T. evansi bloodstream form; assay: Initial screen, T. evansi bloodstream form, Alamar Blue; assay type: cell-based, Trypanosoma evansi; details: Trypanosoma evansi; for activity at 1 µM: initial screen
How it was run: as §1

[3] = system: P. falciparum Dd2Luc intraerythrocytic trophozoites; assay: Initial screen, intraerythrocytic P. falciparum, Malaria SYBR-Green I fluorescence assay; assay type: cell-based, Plasmodium falciparum; details: for activity at 2 µM / inhibition of growth at 2 µM: Plasmodium falciparum, 48 h; for initial hit against P. falciparum: 2 μM, growth reduced by ≥50%; for inhibition of growth at 2 µM: read-out: initial hit P.f
How it was run: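 L. mexicana axenic amastigotes at 1 × 10^6 cells/mL exposed 72 h to compounds at 2 μM, growth read by Alamar Blue; P. falciparum trophozoites at 0.5% parasitaemia, 2% haematocrit, 48 h at 2 μM, SYBR-Green I read-out. Growth normalised to 1% DMSO; hits ≥50% growth reduction.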

T. brucei = assay: Concentration-response EC50, T. brucei; assay type: cell-based, Trypanosoma brucei brucei; details: for EC50: 48 h; for selectivity index (HepG2 CC50 / T. brucei EC50): preliminary selectivity against HepG2
Protocol: (§5) EC50 values were determined by serial two-fold dilution of each compound in 96 well plates. Culture conditions and viability assays were as stated for the initial screen, with some exceptions. L. mexicana and L. donovani axenic amastigotes were seeded at 2 × 10^6 cell/s mL, T. brucei and T. evansi were seeded at 2 × 10^5 cells/mL. For cytotoxicity studies, HepG2 cells were seeded at 1 × 10^5 cells/mL, incubated for 48 h and viability was assessed using the Alamar Blue assay [66, 67]. […] Normalised growth and viability data (compared to untreated controls) were plotted against Log10 concentration to estimate EC50 in GraphPad (Prism v6).

[4] = Cytotoxicity CC50, HepG2, Alamar Blue; details: human
Text: (§2) Initial hits from the parasite panel screen were taken forward in log concentration versus normalised response assays to estimate the half maximal effective concentration (EC50) in hit species as well as the half maximal cytotoxic concentrations (CC50) in the human hepatoma cell line HepG2 as a preliminary test for selectivity. Using CC50/EC50 to define the selectivity index (SI), the selectivity for each compound in a defined species compared to a human cell line was estimated and compared to the EC50 (Figure 3).
(§3) L. mexicana strain MNYC/BZ/62/M379 and L. donovani strain LdBOB (a clonal line from strain MHOM/SD/62/1S-CL2) were maintained in vitro in the procyclic promastigote stage. Parasites were cultivated at 26 °C in Schneider’s medium (Gibco) pH 7.0 containing 10% FBS, 100 U/mL penicillin (Lonza) and 100 μg/mL streptomycin (Lonza) as previously described. Differentiation into axenic amastigotes was performed as described previously. Briefly, axenic amastigotes were cultivated at 32 °C in Schneider’s medium pH 5.5 containing 10% FBS, 100 U/mL penicillin (Lonza) and 100 μg/mL streptomycin (Lonza). Bloodstream form T. brucei brucei strain Lister 427 and T. evansi strain Antat 3/3 [59] were maintained in vitro at 37 °C with 5% (v/v) CO2 in HMI-11 medium supplemented with 10% FBS, as described elsewhere. Intraerythrocytic cultures of P. falciparum Dd2^Luc strain [62] were maintained at 37 °C in a 1% O2:3% CO2:96% N2 atmosphere in RPMI-1640 containing 37.5 mM HEPES, 5 mM NaOH, 10 mM D-glucose, 2 mM L-glutamine, 100 μM hypoxanthine, […] gentamicin sulfate, 5% human serum and 5% albumax-II and 2% haematocrit erythrocytes. When required, cultures were synchronised to ring stages using the sorbitol lysis method. Preliminary cytotoxicity screening was assessed using HepG2 cells. These cells were maintained in vitro at 37 °C with 5% (v/v) CO2 in DMEM (Sigma) pH 7 supplemented with 10% FBS, 100 U/mL penicillin (Lonza) and 100 μg/mL streptomycin (Lonza), as previously described. The human monocyte cell line THP-1 [68] was maintained in vitro by culturing at 37 °C with 5% (v/v) CO2 in complete RPMI medium (Dutch modified RPMI-1640 (Gibco) containing 10% FBS and 2 mM L-glutamine (Gibco)). Differentiation of THP-1 cells into macrophages was performed by seeding 2.5 × 10^5 cells/mL in complete RPMI media, supplemented with 20 ng/mL phorbol 12-myristate 13-acetate (PMA), followed by incubation at 37 °C with 5% (v/v) CO2 for 24 h.
(§4) EC50 values were determined by serial two-fold dilution of each compound in 96 well plates. Culture conditions and viability assays were as stated for the initial screen, with some exceptions. L. mexicana and L. donovani axenic amastigotes were seeded at 2 × 10^6 cell/s mL, T. brucei and T. evansi were seeded at 2 × 10^5 cells/mL. For cytotoxicity studies, HepG2 cells were seeded at 1 × 10^5 cells/mL, incubated for 48 h and viability was assessed using the Alamar Blue assay. Differentiated THP-1 cells were seeded at 5 × 10^4 cells/mL, incubated for 48 h, and viability was assessed by the Alamar Blue assay. Normalised growth and viability data (compared to untreated controls) were plotted against Log10 concentration to estimate EC50 in GraphPad (Prism v6). Bioluminescence relative rate of kill assays in asexual intraerythrocytic P. falciparum Dd2^Luc were carried out as described.

HepG2 cells = assay: Cytotoxicity CC50, HepG2, Alamar Blue; details: 48 h
Text: as §2, §3, §4

[5] = system: L. mexicana axenic amastigotes; assay: Initial screen, L. mexicana axenic amastigotes, Alamar Blue; assay type: cell-based, Leishmania mexicana; details: Leishmania mexicana
How it was run: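 Purified temperate plant natural products from a commercial library (1 mg/mL in DMSO) were tested against Leishmania mexicana axenic amastigotes at a final 2 μM. Parasites were seeded at 1 × 10^6 cells/mL in 96-well plates containing 200 μL culture and incubated 72 h. Growth was measured by Alamar Blue and normalised to DMSO controls (1% v/v), with triplicates over two biological replicates (n = 6).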

T. evansi = assay: Concentration-response EC50, T. evansi; assay type: cell-based; details: Trypanosoma evansi, 48 h, read-out: T. evansi EC50
Protocol: as §5

P. falciparum Dd2Luc = assay: Concentration-response EC50, P. falciparum Dd2Luc; assay type: cell-based, Plasmodium falciparum; details: Plasmodium falciparum, 48 h, read-out: P. falciparum Dd2Luc EC50, intraerythrocytic, 48 h
Protocol: as §5

P. falciparum 3D7 = assay: Concentration-response EC50, P. falciparum 3D7; assay type: cell-based; details: Plasmodium falciparum
Text: This is not surprising as the rate of kill is a result of the mechanism of cell death and, given their structural similarity, these three bisobolane sesquiterpene glycosides likely share the same target(s), albeit with some differences in affinity. The rate of kill, relatively, falls between that of atovaquone and dihydroartemisinin and is more similar to that of chloroquine.

[6] = read-out: %growth P. falciparum, mean % growth compared to a normalised control with same concentration of DMSO solvent, initial screen
[7] = Trypanosoma brucei, bloodstream form, read-out: T. brucei EC50
[8] = read-out: % growth L. mexicana, mean % growth compared to a normalised control with same concentration of DMSO solvent, initial screen
[9] = read-out: % growth T. b. brucei, mean % growth compared to a normalised control with same concentration of DMSO solvent, initial screen
[10] = Trypanosoma brucei, read-out: T. brucei EC50, bloodstream form, 48 h
[11] = 3D7, read-out: P. falciparum 3D7 EC50
[12] = mean % growth compared to a normalised control with same concentration of DMSO solvent, initial screen
[13] = read-out: mean % growth, L. mexicana, initial screen, compared to a normalised control with same concentration of DMSO solvent
[14] = initial screen, compared to a normalised control with same concentration of DMSO solvent, read-out: mean % growth, T. b. brucei
[15] = compared to a normalised control with same concentration of DMSO solvent, read-out: mean % growth, T. evansi
[16] = read-out: mean % growth, P. falciparum, initial screen, compared to a normalised control with same concentration of DMSO solvent
[17] = 3D7, intraerythrocytic, read-out: P. falciparum 3D7 EC50

SMILES | initial hit against T. brucei ([1]; 2 μM) | inhibition of growth at 2 µM ([1]; 2 μM, x = initial hit) [%] | activity at 2 µM [3, 6] [%] | EC50 (T. brucei; [7]) [nM] | activity at 2 µM [5, 8] [%] | initial hit against P. falciparum [3] | inhibition of growth at 2 µM [3] [%] | selectivity index (HepG2 CC50 / T. brucei EC50) (T. brucei) | EC50 (P. falciparum Dd2Luc) [nM] | EC50 (P. falciparum 3D7; [11]) [nM] | activity at 2 µM [5, 13] [%] | activity at 2 µM [1, 14] [%] | activity at 2 µM [3, 16] [%] | CC50 at 48 h ([4]; pH 7, HepG2 CC50) [µM] | further results
CC(=O)OC1C(C)OC(OC2C(OC(=O)C3CC[C@@H]4[C@H](C3)OC3(CC(OC(=O)/C=C/c5ccccc5)[C@@H](C)CO3)C4(O)CO)OC(C)C(O)C2OC(C)=O)C(O)C1O (stereo partly drawn) [Compound 700035] | initial hits | > 50 | 90.1 | 350 |  |  |  |  |  |  |  |  |  |  | activity at 1 µM ([2]; mean % growth compared to a normalised control with same concentration of DMSO solvent, read-out: % growth T. evansi): 105%; EC50 (T. brucei; bloodstream form, read-out: T. brucei EC50): 360 nM; CC50 at 48 h ([4]; pH 7, HepG2 CC50, 48 h): 15.2 µM; CC50 (HepG2 cells; read-out: HepG2 CC50): 15 µM
CC(=O)OC1C(O)C(C)OC(OC2C(OC(=O)C3CC[C@@H]4[C@H](C3)OC3(CC(OC(=O)/C=C/c5ccccc5)[C@@H](C)CO3)C43CO3)OC(CO)C(O)C2O)C1O (stereo partly drawn) [Compound 700046] | initial hits |  | 9.8 |  | 83.4 | initial hits | > 50 | > 10 | 56 | 34 |  |  |  |  | activity at 2 µM [1, 9]: 5.6%; inhibition of growth at 2 µM [1]: > 50%; activity at 1 µM ([2]; read-out: % growth T. evansi, mean % growth compared to a normalised control with same concentration of DMSO solvent): 2.9%; inhibition of growth at 1 µM ([2]; read-out: initial hit T.e): > 50%; EC50 (T. brucei; [10]): 180 nM; EC50 (T. evansi): 118 nM
CC(=O)OC1C(O)C(C)OC(OC2C(OC(=O)C3CC[C@@H]4[C@H](C3)OC3(CC(OC(=O)/C=C/c5ccccc5)[C@@H](C)CO3)C43CO3)OC(CO)C(O)C2OC(C)=O)C1O (stereo partly drawn) [Compound 700048] | initial hits |  |  |  | 89 | initial hits | > 50 | > 10 | 150 | 360 |  |  |  |  | inhibition of growth at 2 µM [1]: > 50%; % growth T. b. brucei [1, 12]: 5.8%; %growth P. falciparum [3, 12]: 20.3%; EC50 (T. brucei; [10]): 160 nM
COc1cc(/C=C/C(=O)OC2CC3(C[C@H]4C=C(C(=O)OC5OC(CO)C(O)C(OC(C)=O)C5OC5OC(C)C(O)C(OC(C)=O)C5O)CC[C@H]4C34CO4)OC[C@@H]2C)ccc1O (stereo partly drawn) [Compound 700104] |  |  | 31.6 |  | 146 | initial hits | > 50 |  | 750 | 350 |  |  |  |  | activity at 2 µM [1, 9]: 69.7%
C=C1C(OC(=O)/C=C/c2ccccc2)C(CC(C)=O)C(O)C2(C)CCC3=C(C)C(OC(C)=O)CC(CC12)C3(C)C (stereo not drawn) [Compound 700535] |  |  |  |  |  | initial hits | > 50 |  | 2300 |  | 68.2 | 99.4 | 31 |  | activity at 1 µM [2, 15]: 78.7%; EC50 (P. falciparum 3D7; [17]): 3300 nM
CC1(C)OC2CC(=O)C=CC2(c2cc(=O)c3c(O)cc(O)cc3o2)O1 (stereo not drawn) [Compound 700585] | initial hits | > 50 |  | 430 |  |  |  | > 10 |  |  | 78 | 40.8 | 95.2 | < 10 | CC50 (HepG2 cells; human, pH 7): 5.3 µM
CC(=O)OC1C(COC(=O)/C=C/c2ccc(O)cc2)OC(Oc2c(-c3ccc(O)cc3)oc3cc(O)cc(O)c3c2=O)C(OC(=O)/C=C/c2ccc(O)cc2)C1OC(C)=O (stereo not drawn) [Compound 701082] | initial hits | > 50 |  | 1100 |  |  |  |  | 1200 |  | 67.8 | 5 | 77 | 4.6 | EC50 (P. falciparum 3D7; [17]): 1600 nM
COC(=O)C1=COC(O)C2C1CC(OC(=O)/C=C/c1ccc(O)cc1)C2C (stereo not drawn) [Compound 701145] | initial hits | > 50 |  | 520 |  |  |  |  |  |  | 48.9 | 3.4 | 96 | 27.8 | activity at 1 µM [2, 15]: 118%; CC50 (HepG2 cells; human, pH 7): 28 µM
